Values joined by “and” are separate entries in the source; they are usually repeats but may differ in a detail not shown here. Equal entries are not always repeated.
Experiment: molar heat capacity at saturation pressure
Details: Crystal 3, Small (less than 1 g) adiabatic calorimetry

C1C2CC3CC1CC(C14CC5CC(CC(C5)C1)C4)(C2)C3 [1,1'-biadamantane]
Details	molar heat capacity
5.12 K	0.3991 J/K/mol
5.48 K	0.4822 J/K/mol
5.83 K	0.5877 J/K/mol
6.16 K	0.685 J/K/mol
6.52 K	0.8082 J/K/mol
6.89 K	0.9715 J/K/mol
7.26 K	1.141 J/K/mol
7.65 K	1.358 J/K/mol
8.06 K	1.589 J/K/mol
8.49 K	1.895 J/K/mol
8.96 K	2.209 J/K/mol
9.44 K	2.572 J/K/mol
9.95 K	2.983 J/K/mol
10.48 K	3.464 J/K/mol
11.04 K	3.988 J/K/mol
11.61 K	4.561 J/K/mol
12.2 K	5.242 J/K/mol
12.83 K	5.943 J/K/mol
13.49 K	6.781 J/K/mol
14.18 K	7.626 J/K/mol
14.87 K	8.538 J/K/mol
15.63 K	9.556 J/K/mol
16.43 K	10.67 J/K/mol
17.24 K	11.86 J/K/mol
18.08 K	13.09 J/K/mol
18.95 K	14.44 J/K/mol
19.88 K	15.84 J/K/mol
20.83 K	17.31 J/K/mol
21.82 K	18.74 J/K/mol
22.89 K	20.35 J/K/mol
22.95 K	20.46 J/K/mol
24.01 K	21.99 J/K/mol
24.06 K	22.16 J/K/mol
25.22 K	23.79 J/K/mol
26.48 K	25.74 J/K/mol
27.75 K	27.57 J/K/mol
29.1 K	29.32 J/K/mol
30.54 K	31.4 J/K/mol
31.99 K	33.13 J/K/mol
33.46 K	34.98 J/K/mol
34.99 K	36.71 J/K/mol
36.59 K	38.54 J/K/mol
38.25 K	40.44 J/K/mol
40.03 K	42.38 J/K/mol
41.9 K	44.38 J/K/mol
43.85 K	46.11 J/K/mol
45.82 K	48.13 J/K/mol
47.8 K	49.99 J/K/mol
49.9 K	51.98 J/K/mol
52.16 K	54.02 J/K/mol
56.79 K	58.28 J/K/mol
59.06 K	60 J/K/mol
61.48 K	62.21 J/K/mol
64.1 K	64.5 J/K/mol
66.87 K	66.86 J/K/mol
69.6 K	69.08 J/K/mol
72.27 K	71.72 J/K/mol
74.94 K	73.93 J/K/mol
77.75 K	76.41 J/K/mol
78.69 K	77.62 J/K/mol
80.6 K	79.18 J/K/mol
81.1 K	79.65 J/K/mol
83.35 K	81.61 J/K/mol
83.41 K	81.57 J/K/mol
85.61 K	83.56 J/K/mol
86.26 K	84.36 J/K/mol
87.88 K	85.72 J/K/mol
89.1 K	86.73 J/K/mol
90.15 K	87.8 J/K/mol
91.92 K	89.55 J/K/mol
92.41 K	89.88 J/K/mol
94.69 K	91.96 J/K/mol
96.97 K	94.12 J/K/mol
99.26 K	96.28 J/K/mol
101.55 K	98.53 J/K/mol
103.84 K	100.69 J/K/mol
106.12 K	102.85 J/K/mol
108.41 K	105.09 J/K/mol
110.71 K	107.17 J/K/mol
113 K	109.58 J/K/mol
115.31 K	111.83 J/K/mol
117.61 K	113.99 J/K/mol
119.9 K	116.15 J/K/mol
122.2 K	118.56 J/K/mol
124.49 K	120.81 J/K/mol
126.77 K	123.05 J/K/mol
129.06 K	125.38 J/K/mol
130.26 K	126.5 J/K/mol
131.34 K	127.63 J/K/mol
132.68 K	129 J/K/mol
134.96 K	131.3 J/K/mol
137.24 K	133.6 J/K/mol
139.51 K	135.9 J/K/mol
141.78 K	138.2 J/K/mol
144.05 K	140.5 J/K/mol
146.32 K	142.9 J/K/mol
148.59 K	145.3 J/K/mol
150.84 K	147.7 J/K/mol
153.1 K	150.1 J/K/mol
155.35 K	152.4 J/K/mol
157.59 K	154.7 J/K/mol
159.84 K	157.1 J/K/mol
162.08 K	159.6 J/K/mol
164.32 K	161.9 J/K/mol
166.57 K	164.4 J/K/mol
168.8 K	166.9 J/K/mol
171.03 K	169.3 J/K/mol
173.25 K	171.7 J/K/mol
175.46 K	174.2 J/K/mol
177.68 K	176.7 J/K/mol
179.89 K	179.2 J/K/mol
182.09 K	181.7 J/K/mol
184.28 K	184.2 J/K/mol
186.47 K	186.7 J/K/mol
188.65 K	189.2 J/K/mol
190.83 K	191.6 J/K/mol
193 K	194.2 J/K/mol
195.17 K	196.7 J/K/mol
197.33 K	199.3 J/K/mol
199.49 K	201.8 J/K/mol
201.65 K	204.5 J/K/mol
203.8 K	207.1 J/K/mol
205.94 K	209.8 J/K/mol
208.08 K	212.4 J/K/mol
210.21 K	215 J/K/mol
212.34 K	217.7 J/K/mol
214.46 K	220.3 J/K/mol
216.58 K	222.9 J/K/mol
217.18 K	223.7 J/K/mol
218.7 K	225.6 J/K/mol
219.55 K	226.6 J/K/mol
220.81 K	228.3 J/K/mol
221.81 K	229.5 J/K/mol
222.91 K	231 J/K/mol
224.05 K	232.4 J/K/mol
225.01 K	233.7 J/K/mol
226.29 K	235.3 J/K/mol
228.52 K	238.3 J/K/mol
230.75 K	241.1 J/K/mol
232.97 K	244 J/K/mol
235.18 K	246.9 J/K/mol
237.39 K	249.9 J/K/mol
239.59 K	252.9 J/K/mol
241.79 K	255.7 J/K/mol
243.98 K	258.7 J/K/mol
246.17 K	261.7 J/K/mol
248.35 K	264.6 J/K/mol
250.52 K	267.6 J/K/mol
252.71 K	270.6 J/K/mol
254.88 K	273.6 J/K/mol
257.04 K	276.7 J/K/mol
259.19 K	279.8 J/K/mol
261.34 K	282.9 J/K/mol
263.48 K	286 J/K/mol
265.62 K	289.2 J/K/mol
267.75 K	292 J/K/mol
269.87 K	295.1 J/K/mol
271.98 K	298.2 J/K/mol
274.09 K	301.2 J/K/mol
275.74 K	303.3 J/K/mol
276.2 K	304.1 J/K/mol
277.54 K	306 J/K/mol
278.29 K	307.1 J/K/mol
279.26 K	308.4 J/K/mol
280.39 K	310.1 J/K/mol
280.98 K	311 J/K/mol
282.47 K	313.1 J/K/mol
282.68 K	313.6 J/K/mol
284.38 K	316 J/K/mol
284.56 K	316 J/K/mol
286.08 K	318.6 J/K/mol
286.65 K	319.1 J/K/mol
287.78 K	321.1 J/K/mol
288.72 K	322.2 J/K/mol
289.47 K	323.6 J/K/mol
290.79 K	325 J/K/mol
291.16 K	325.9 J/K/mol
292.84 K	328 J/K/mol and 328.3 J/K/mol
294.52 K	330.7 J/K/mol
294.89 K	331.1 J/K/mol
296.19 K	333.2 J/K/mol
296.94 K	334 J/K/mol
297.87 K	335.4 J/K/mol
298.98 K	336.9 J/K/mol
299.54 K	338 J/K/mol
301.01 K	339.9 J/K/mol
301.2 K	340.6 J/K/mol
302.86 K	342.9 J/K/mol
303.04 K	342.7 J/K/mol
304.51 K	345.2 J/K/mol
305.05 K	345.7 J/K/mol

Source: the NIST ThermoML archive (doi:10.1016/j.tca.2007.03.018)
